The target in assay [1] is T1, PKR WT (Homo sapiens, UniProt P30613). The experiment in a line: PKR WT enzymatic AC50 assay. In kind it is biochemical. The conditions noted are these: wild type PKR. The gist of the method:
(§1)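 Human PKR (WT or mutant, 80-400 ng/well) in 50 mM Tris pH 7.5, 100 mM KCl, 5 mM MgCl2, 1 mM DTT, 0.03% BSA with PEP 0.1-0.5 mM, NADH 180 uM and LDH, preincubated 60 min at room temperature with compound (11-point 3-fold series from 100 μM final, 1% DMSO). ADP 0.22-1.65 mM started reaction; A340 followed.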

The target of assay [2] is T1, PKR WT. Description: PKR WT cell based AC50 assay. Conditions: wild type PKR.
In a further assay the target is PKR R532W (Homo sapiens, UniProt P30613, R532W). The experiment in a line: PKR Mutant Assay, AC50 against PKR R532W. In kind it is biochemical. The conditions noted are these: mutant PKR R532W enzyme. The gist of the method: as §1
In another assay the target is PKR R510Q (Homo sapiens, UniProt P30613, R510Q). The experiment in a line: PKR Mutant Assay, AC50 against PKR R510Q. In kind it is biochemical. Conditions: mutant PKR R510Q enzyme. The gist of the method:
as §1

For orientation: AC50 means the midpoint of the concentration-response curve, whichever way the signal moves. A low value points to greater potency.

PKR R510Q, sequence (P30613 whole entry R510Q): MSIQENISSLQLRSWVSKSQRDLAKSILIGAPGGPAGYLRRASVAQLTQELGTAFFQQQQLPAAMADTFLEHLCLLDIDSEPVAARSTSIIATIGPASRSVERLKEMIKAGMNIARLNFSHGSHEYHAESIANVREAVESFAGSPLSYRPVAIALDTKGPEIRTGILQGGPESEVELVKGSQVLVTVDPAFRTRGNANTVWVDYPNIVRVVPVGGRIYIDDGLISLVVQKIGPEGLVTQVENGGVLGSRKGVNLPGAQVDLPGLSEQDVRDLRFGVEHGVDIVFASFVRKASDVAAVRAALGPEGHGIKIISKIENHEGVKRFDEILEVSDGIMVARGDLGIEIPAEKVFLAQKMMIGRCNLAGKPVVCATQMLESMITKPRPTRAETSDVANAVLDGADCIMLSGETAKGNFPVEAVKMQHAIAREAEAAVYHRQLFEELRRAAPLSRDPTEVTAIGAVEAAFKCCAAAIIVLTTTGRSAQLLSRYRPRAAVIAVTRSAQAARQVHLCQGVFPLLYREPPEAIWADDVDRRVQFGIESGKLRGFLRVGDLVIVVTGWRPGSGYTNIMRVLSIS
T1 sequence (P30613 whole entry): as the sequence (P30613 whole entry R510Q) above, with Q510R counted along it
PKR R532W, sequence (P30613 whole entry R532W): as the sequence (P30613 whole entry R510Q) above, with Q510R, R532W counted along it

As for `O=C(c1ccc(NS(=O)(=O)c2cccc3cccnc23)cc1)N1CCC(O)(Cc2ccccc2F)CC1` [Compound 110, N-(4-(4-(2-fluorobenzyl)-4-hydroxypiperidine-1-carbonyl)phenyl)quinoline-8-sulfonamide], the AC50 on PKR WT [1], at PKR WT [2], at PKR R532W and on PKR R510Q was below 100 nM in each case.
For `O=C(c1ccc(NS(=O)(=O)c2cccc3cccnc23)cc1)N1CCC(O)(c2ccc(F)cc2Cl)CC1` [Compound 111, N-[4-[4-(2-chloro-4-fluoro-phenyl)-4-hydroxy-piperidine-1-carbonyl]phenyl]quinoline-8-sulfonamide], the concentration at half-maximal activity (AC50) at PKR WT [1], on PKR WT [2], at PKR R532W and on PKR R510Q was below 100 nM each time.
As to `COc1cc(NS(=O)(=O)c2cccc3cccnc23)ccc1C(=O)N1CCC(O)(Cc2ccccc2)CC1` [Compound 112, N-(4-(4-benzyl-4-hydroxypiperidine-1-carbonyl)-3-methoxyphenyl)quinoline-8-sulfonamide], the AC50 was below 100 nM on PKR WT [1], 101 to 1000 nM at PKR WT [2], below 100 nM on PKR R532W and below 100 nM on PKR R510Q.
As to `O=C(c1ccc(NS(=O)(=O)c2cccc3cccnc23)cc1)N1CCC(O)(c2ccccc2C(F)F)CC1` [Compound 113, N-[4-[4-[2-(difluoromethyl)phenyl]-4-hydroxy-piperidine-1-carbonyl]phenyl]quinoline-8-sulfonamide], the AC50 on PKR WT [1], on PKR WT [2], at PKR R532W and on PKR R510Q was below 100 nM throughout.
Consider `O=C(c1ccc(NS(=O)(=O)c2cccc3nccnc23)cc1)N1CCC(O)(Cc2ccccc2C(F)(F)F)CC1` [Compound 114, N-(4-(4-hydroxy-4-(2-(trifluoromethyl)benzyl)piperidine-1-carbonyl)phenyl)quinoxaline-5-sulfonamide], for which the AC50 at PKR WT [1], at PKR WT [2], on PKR R532W and on PKR R510Q was below 100 nM in each case.
For `O=C(c1ccc(NS(=O)(=O)c2cccc3cccnc23)cc1F)N1CCC(O)(Cc2ccccc2)CC1` [Compound 115, N-(4-(4-benzyl-4-hydroxypiperidine-1-carbonyl)-3-fluorophenyl)quinoline-8-sulfonamide], the concentration at half-maximal activity (AC50) at PKR WT [1], on PKR WT [2], on PKR R532W and on PKR R510Q was below 100 nM throughout.
Regarding `COc1ccccc1CC1(O)CCN(C(=O)c2ccc(NS(=O)(=O)c3cccc4cccnc34)cc2)CC1` [Compound 116, N-(4-(4-hydroxy-4-(2-methoxybenzyl)piperidine-1-carbonyl)phenyl)quinoline-8-sulfonamide], the AC50 at PKR WT [1], at PKR WT [2], on PKR R532W and on PKR R510Q was below 100 nM each time.
For `CC(C)(C)CC1(O)CCN(C(=O)c2ccc(NS(=O)(=O)c3cccc4cccnc34)cc2)CC1` [Compound 117, N-(4-(4-hydroxy-4-neopentylpiperidine-1-carbonyl)phenyl)quinoline-8-sulfonamide], the AC50 at PKR WT [1], at PKR WT [2], at PKR R532W and on PKR R510Q was below 100 nM each time.
Consider `Cc1cccc(CC2(O)CCN(C(=O)c3ccc(NS(=O)(=O)c4cccc5cccnc45)cc3)CC2)c1` [Compound 118, N-(4-(4-hydroxy-4-(3-methylbenzyl)piperidine-1-carbonyl)phenyl)quinoline-8-sulfonamide], for which the half-maximal activity concentration (AC50) is below 100 nM on PKR WT [1], below 100 nM at PKR WT [2], below 100 nM on PKR R532W and 101 to 1000 nM at PKR R510Q.
Turning to `Cc1cc(C(=O)N2CCC(O)(c3ccccc3Cl)CC2)ccc1NS(=O)(=O)c1cccc2nccnc12` [Compound 119, N-(4-(4-(2-chlorophenyl)-4-hydroxypiperidine-1-carbonyl)-2-methylphenyl)quinoxaline-5-sulfonamide], the AC50 at PKR WT [1], on PKR WT [2], on PKR R532W and at PKR R510Q was below 100 nM each time.
With `O=C(c1ccc(NS(=O)(=O)c2cccc3cccnc23)cc1)N1CCC(O)(Cc2c(F)cccc2F)CC1` [Compound 120, N-(4-(4-(2,6-difluorobenzyl)-4-hydroxypiperidine-1-carbonyl)phenyl)quinoline-8-sulfonamide], the AC50 at PKR WT [1], on PKR WT [2], on PKR R532W and on PKR R510Q was below 100 nM in each case.
For the compound `CC1(CC2(O)CCN(C(=O)c3ccc(NS(=O)(=O)c4cccc5cccnc45)cc3)CC2)CC1` [Compound 121, N-(4-(4-hydroxy-4-((1-methylcyclopropyl)methyl)piperidine-1-carbonyl)phenyl)quinoline-8-sulfonamide], the AC50 on PKR WT [1], on PKR WT [2], at PKR R532W and at PKR R510Q was below 100 nM each time.
Turning to `O=C(c1ccc(NS(=O)(=O)c2cccc3cccnc23)cc1)N1CCC(O)(c2ccccc2Cl)CC1` [Compound 122, N-(4-(4-(2-chlorophenyl)-4-hydroxypiperidine-1-carbonyl)phenyl)quinoline-8-sulfonamide], the half-maximal activity concentration (AC50) at PKR WT [1], on PKR WT [2], on PKR R532W and on PKR R510Q was below 100 nM throughout.
Turning to `O=C(c1ccc(NS(=O)(=O)c2cccc3cccnc23)cc1)N1CCC(O)(c2cccc(F)c2Cl)CC1` [Compound 123, N-[4-[4-(2-chloro-3-fluoro-phenyl)-4-hydroxy-piperidine-1-carbonyl]phenyl]quinoline-8-sulfonamide], the AC50 on PKR WT [1], at PKR WT [2], on PKR R532W and on PKR R510Q was below 100 nM in each case.
`O=C(c1ccc(NS(=O)(=O)c2cccc3cccnc23)cc1)N1CCC(O)(CC2CCC2)CC1` [Compound 124, N-(4-(4-(cyclobutylmethyl)-4-hydroxypiperidine-1-carbonyl)phenyl)quinoline-8-sulfonamide]: the AC50 at PKR WT [1], on PKR WT [2], on PKR R532W and at PKR R510Q was below 100 nM each time.
`O=C(c1ccc(NS(=O)(=O)c2cccc3scnc23)cc1)N1CCC(O)(Cc2ccccc2C(F)(F)F)CC1` [Compound 125]: the AC50 on PKR WT [1], on PKR WT [2], on PKR R532W and at PKR R510Q was below 100 nM throughout.
`O=C(c1ccc(NS(=O)(=O)c2cccc3cccnc23)cc1)N1CCC(O)(c2ccccc2C(F)(F)F)CC1` [Compound 126, N-(4-(4-hydroxy-4-(2-(trifluoromethyl)phenyl)piperidine-1-carbonyl)phenyl)quinoline-8-sulfonamide]: the concentration at half-maximal activity (AC50) on PKR WT [1], on PKR WT [2], on PKR R532W and on PKR R510Q was below 100 nM throughout.
Consider `CCc1ccccc1C1(O)CCN(C(=O)c2ccc(NS(=O)(=O)c3cccc4cccnc34)cc2)CC1` [Compound 127, N-(4-(4-(2-ethylphenyl)-4-hydroxypiperidine-1-carbonyl)phenyl)quinoline-8-sulfonamide], for which the half-maximal activity concentration (AC50) on PKR WT [1], on PKR WT [2], on PKR R532W and at PKR R510Q was below 100 nM throughout.
Turning to `O=C(c1ccc(NS(=O)(=O)c2cccc3cc(F)cnc23)cc1)N1CCC(O)(Cc2ccccc2)CC1` [Compound 128, N-(4-(4-benzyl-4-hydroxypiperidine-1-carbonyl)phenyl)-3-fluoroquinoline-8-sulfonamide], the AC50 on PKR WT [1], on PKR WT [2], at PKR R532W and on PKR R510Q was below 100 nM each time.
With `Cc1nc(F)ccc1C1(O)CCN(C(=O)c2ccc(NS(=O)(=O)c3cccc4cccnc34)cc2)CC1` [Compound 129, N-(4-(4-(6-fluoro-2-methylpyridin-3-yl)-4-hydroxypiperidine-1-carbonyl)phenyl)quinoline-8-sulfonamide], the AC50 at PKR WT [1], at PKR WT [2], on PKR R532W and at PKR R510Q was below 100 nM throughout.
For the compound `CC(C)(C)CC1(O)CCN(C(=O)c2ccc(NS(=O)(=O)c3cccc4nccnc34)cc2)CC1` [Compound 130, N-(4-(4-hydroxy-4-neopentylpiperidine-1-carbonyl)phenyl)quinoxaline-5-sulfonamide], the concentration at half-maximal activity (AC50) on PKR WT [1], on PKR WT [2], on PKR R532W and on PKR R510Q was below 100 nM throughout.
With `O=C(c1ccc(NS(=O)(=O)c2cccc3cccnc23)cc1)N1CCC(O)(Cc2ccccc2)CC1` [Compound 131, N-(4-(4-benzyl-4-hydroxypiperidine-1-carbonyl)phenyl)quinoline-8-sulfonamide], the AC50 at PKR WT [1], at PKR WT [2], at PKR R532W and on PKR R510Q was below 100 nM each time.
Regarding `O=C(c1ccc(NS(=O)(=O)c2cccc3cccnc23)cc1)N1CCC(O)(c2ccc(F)c(Br)n2)CC1` [Compound 133, N-(4-(4-(6-bromo-5-fluoropyridin-2-yl)-4-hydroxypiperidine-1-carbonyl)phenyl)quinoline-8-sulfonamide], the AC50 at PKR WT [1], at PKR WT [2], at PKR R532W and on PKR R510Q was below 100 nM throughout.
With `CC(C)(C)CC1(O)CCN(C(=O)c2ccc(NS(=O)(=O)c3cccc4scnc34)cc2)CC1` [Compound 134, N-(4-(4-hydroxy-4-neopentylpiperidine-1-carbonyl)phenyl)benzo[d]thiazole-4-sulfonamide], the concentration at half-maximal activity (AC50) at PKR WT [1], on PKR WT [2], at PKR R532W and at PKR R510Q was below 100 nM throughout.

For the origin of these results see patent US9108921B2, “Therapeutic compounds and compositions” (AGIOS PHARMACEUTICALS, INC, priority 2014, dated 2015).
